Experimental data reported in patent US20250262201A1, “COMPOUNDS AND METHODS USEFUL FOR STABILIZING PHENYLALANINE HYDROXYLASE MUTATIONS” (Agios Pharmaceuticals, Inc., priority 2022, published 2025).

What follows are molecules tested against T1, human PAH with the R408W mutation (Homo sapiens, UniProt P00439, R408W) (assay: Cell Based Phenylalanine Flux Assay). Settings: A375 cells expressing human R408W PAH; 24 hrs compound incubation; 13C-Tyrosine by LC-MS; average where tested multiple times; read-out: AC50.
T1 construct: expressed in transfected cells
T1 sequence (P00439 1-452 R408W): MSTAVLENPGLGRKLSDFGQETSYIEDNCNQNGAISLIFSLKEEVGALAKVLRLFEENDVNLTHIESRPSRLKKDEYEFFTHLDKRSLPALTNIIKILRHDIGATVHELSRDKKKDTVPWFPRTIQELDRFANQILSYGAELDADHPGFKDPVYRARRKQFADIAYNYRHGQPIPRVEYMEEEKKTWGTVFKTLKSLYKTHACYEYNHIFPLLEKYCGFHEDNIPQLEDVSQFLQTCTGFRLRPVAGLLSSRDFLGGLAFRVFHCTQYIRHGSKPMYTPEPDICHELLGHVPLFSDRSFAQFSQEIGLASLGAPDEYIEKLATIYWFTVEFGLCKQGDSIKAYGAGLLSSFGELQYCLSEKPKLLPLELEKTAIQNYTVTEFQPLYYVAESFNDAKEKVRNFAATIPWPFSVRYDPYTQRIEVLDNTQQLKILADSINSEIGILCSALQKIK

Compound | AC50 [nM]
Cc1nc([C@H](C)O)oc1C(=O)N1CCc2[nH]cnc2C1c1ccc2ccccc2n1 (stereo in doubt) [Example 99, (2-((S)-1-hydroxyethyl)-4-methyloxazol-5-yl)((R)-4-(quinolin-2-yl)-6,7-dihydro-1H-imidazo[4,5-c]pyridin-5(4H)-yl)methanone] | 1000 to 5000
Cc1nc(C2(O)CCC2)oc1C(=O)N1CCc2[nH]cnc2C1c1ccc2ccccc2n1 (stereo in doubt) [Example 101, (R)-(2-(1-hydroxycyclobutyl)-4-methyloxazol-5-yl)(4-(quinolin-2-yl)-6,7-dihydro-1H-imidazo[4,5-c]pyridin-5(4H)-yl)methanone] | 500 to 1000
Cc1nc(C2(O)CCC2)oc1C(=O)N1CCc2[nH]cnc2C1c1ccc2ccccc2n1 (stereo in doubt) [Example 102, (S)-(2-(1-hydroxycyclobutyl)-4-methyloxazol-5-yl)(4-(quinolin-2-yl)-6,7-dihydro-1H-imidazo[4,5-c]pyridin-5(4H)-yl)methanone] | > 5000
Cc1ccc(-c2nnc(C(=O)N3CCc4[nH]cnc4C3c3ccc4ccccc4n3)o2)nc1 (stereo in doubt) [Example 103, (S)-(5-(5-methylpyridin-2-yl)-1,3,4-oxadiazol-2-yl)(4-(quinolin-2-yl)-6,7-dihydro-1H-imidazo[4,5-c]pyridin-5(4H)-yl)methanone] | 1000 to 5000
Cc1ccc(-c2nnc(C(=O)N3CCc4[nH]cnc4C3c3ccc4ccccc4n3)o2)nc1 (stereo in doubt) [Example 104, (R)-(5-(5-methylpyridin-2-yl)-1,3,4-oxadiazol-2-yl)(4-(quinolin-2-yl)-6,7-dihydro-1H-imidazo[4,5-c]pyridin-5(4H)-yl)methanone] | < 500
CC(C)(F)c1nnc(C(=O)N2CCc3[nH]cnc3C2c2ccc3ccccc3n2)o1 (stereo in doubt) [Example 105, (R)-(5-(2-fluoropropan-2-yl)-1,3,4-oxadiazol-2-yl)(4-(quinolin-2-yl)-6,7-dihydro-1H-imidazo[4,5-c]pyridin-5(4H)-yl)methanone] | 500 to 1000
CC(C)(F)c1nnc(C(=O)N2CCc3[nH]cnc3C2c2ccc3ccccc3n2)o1 (stereo in doubt) [Example 106, (S)-(5-(2-fluoropropan-2-yl)-1,3,4-oxadiazol-2-yl)(4-(quinolin-2-yl)-6,7-dihydro-1H-imidazo[4,5-c]pyridin-5(4H)-yl)methanone] | 1000 to 5000

More lines, now with the values ahead:

AC50 [nM] | Compound
500 to 1000 | O=C(c1nnc(-c2cc(C(F)(F)F)ccn2)o1)N1CCc2[nH]cnc2C1c1ccc2ccccc2n1 (stereo in doubt) [Example 107, (R)-(4-(quinolin-2-yl)-6,7-dihydro-1H-imidazo[4,5-c]pyridin-5(4H)-yl)(5-(4-(trifluoromethyl)pyridin-2-yl)-1,3,4-oxadiazol-2-yl)methanone]
1000 to 5000 | O=C(c1nnc(-c2cc(C(F)(F)F)ccn2)o1)N1CCc2[nH]cnc2C1c1ccc2ccccc2n1 (stereo in doubt) [Example 108, (S)-(4-(quinolin-2-yl)-6,7-dihydro-1H-imidazo[4,5-c]pyridin-5(4H)-yl)(5-(4-(trifluoromethyl)pyridin-2-yl)-1,3,4-oxadiazol-2-yl)methanone]
1000 to 5000 | O=C(c1cn(-c2ccccn2)nc1Cl)N1CCc2[nH]cnc2C1c1ccc2ccccc2n1 (stereo in doubt) [Example 109, (R)-(3-chloro-1-(pyridin-2-yl)-1H-pyrazol-4-yl)(4-(quinolin-2-yl)-6,7-dihydro-1H-imidazo[4,5-c]pyridin-5(4H)-yl)methanone]
1000 to 5000 | O=C(c1cn(-c2ccccn2)nc1Cl)N1CCc2[nH]cnc2C1c1ccc2ccccc2n1 (stereo in doubt) [Example 110, (S)-(3-chloro-1-(pyridin-2-yl)-1H-pyrazol-4-yl)(4-(quinolin-2-yl)-6,7-dihydro-1H-imidazo[4,5-c]pyridin-5(4H)-yl)methanone]
